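Interpolation was linear, between the two tested concentrations surrounding the appropriate level; five concentrations were tested over 48 hours in 96-well plates. TGI denotes the concentration required for complete inhibition of growth.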
How the values were obtained:
Assay in all cases: inhibition of tumour cell growth, NCI panel, 48 h
786-0 renal = system: 786-0 renal
A498 renal = system: A498 renal
ACHN renal = system: ACHN renal
CAKI-1 renal = system: CAKI-1 renal
CCRF-CEM leukemia = system: CCRF-CEM leukemia
COLO 205 colon = system: COLO 205 colon
HS 578T breast = system: HS 578T breast
IGROV1 ovarian = system: IGROV1 ovarian
K-562 leukemia = system: K-562 leukemia
MDA-MB-231 breast = system: MDA-MB-231 breast
MDA-MB-435 = system: MDA-MB-435
MOLT-4 leukemia = system: MOLT-4 leukemia
RPMI-8226 leukemia = system: RPMI-8226 leukemia
SF-539 CNS = system: SF-539 CNS
SK-MEL-2 melanoma = system: SK-MEL-2 melanoma
U251 CNS = system: U251 CNS
UACC-62 melanoma = system: UACC-62 melanoma

SMILES	TGI (786-0 renal) [µM]	TGI (A498 renal) [µM]	TGI (ACHN renal) [µM]	TGI (CAKI-1 renal) [µM]	TGI (CCRF-CEM leukemia) [µM]	TGI (COLO 205 colon) [µM]	TGI (HS 578T breast) [µM]	TGI (IGROV1 ovarian) [µM]	TGI (K-562 leukemia) [µM]	TGI (MDA-MB-231 breast) [µM]	TGI (MDA-MB-435) [µM]	TGI (MOLT-4 leukemia) [µM]	TGI (RPMI-8226 leukemia) [µM]	TGI (SF-539 CNS) [µM]	TGI (SK-MEL-2 melanoma) [µM]	TGI (U251 CNS) [µM]	TGI (UACC-62 melanoma) [µM]
Brc1ccc2[nH]cc([C@@H]3CN[C@@H](c4c[nH]c5ccc(Br)cc45)CN3)c2c1	14.3	28.7	9.59	21.9	5.41	3.69	29.6	16.6	3.74	14.2	11.9	4.51	5.46	24.9	27.8	11.2	21.8
C=CC(C)(C)c1c(OC)oc2ccc(OC)c(C)c2c1=O	> 100	> 100	> 100	> 100	> 100	> 100	> 100	> 100	> 100	> 100	> 100	> 100	> 100	> 100	> 100	> 100	> 100
N[C@@H]1c2c(Br)sc(Br)c2C(=O)[C@H]1Br	63.5	> 69.9	43.8	66.4	> 22.6	> 68	> 100	45.9	> 67	48.5	> 61	> 46.1	39.5	> 100	> 100	60.1	59.3
c1ccc(C2C3=C(c4ccccc4CC3)N3c4cc5nc6ccccc6nc5cc4NC34CCCCC24)cc1 (centres undefined)	> 10	> 10	> 10	> 10	5.9	> 10	> 10	> 10	> 10	> 10	> 10	> 8.19	> 9.17	> 10	> 10	> 10	> 10
O=c1cc(CN2CCCCC2)[nH]c2c1ccc1nc(CN3CCCCC3)cc(=O)n12	> 100	> 100	> 100	> 100	> 100	> 100	> 100	> 100	> 100	> 100	> 100	> 100	> 100	> 100	> 100	> 100	> 100
COc1ccc(-c2nc(SCC(=O)N/N=C/c3ccc([N+](=O)[O-])cc3)[nH]c2-c2ccc(OC)cc2)cc1	> 93.1	55.4	99.4	> 75.6	> 22.1	5.28	76.3	74.8	> 100	> 100	12.2	42.1	62	30.8	20.5	29.4	20.5
Cc1ccc(OC2CC(n3cnc4c(=O)[nH]c(Br)nc43)OC2Oc2ccc(C)cc2)cc1 (centres undefined)	74.9	> 100	38	75.7	53.7	82.8	66.1	66.9	51.1	46.9	57.1	50.5	87.9	50.1	75.8	79.9	53.7
O=C(CC(O)(C(F)(F)Cl)C(F)(F)Cl)CC(O)(C(F)(F)Cl)C(F)(F)Cl	> 10	7.74	> 10	6.62	> 10	3.07	7.86	> 10	4.45	5.29	8.63	> 10	4.84	> 10	3.54	7.39	> 10
COc1cc(S(=O)(=O)Nc2ccc(-c3csc(/N=C\c4ccccc4O)n3)cc2)ccc1Cl	> 100	> 100	> 100	> 100	> 100	> 100	> 100	> 100	> 100	> 100	> 100	70.3	> 100	> 100	78.5		> 100
Cc1ccc(S(=O)(=O)NN=C2C(C)CC(C(C)(C)C)CC2C)cc1 (centres undefined)	32.9	31.4		31.6	41.8	34.5	> 100	> 100	44.1	85.9	34.9	43	52.8	> 100	32.9	31.5	93.2
Brc1ccc(N=C/C=C(\Nc2ccc(Br)cc2)C23CC4CC(CC(C4)C2)C3)cc1	28.9	79.7	23.2	25.4	4.5	47.3	> 67.4	28	> 67	31.9	24.7	> 72.8	> 100	51.8	28.3	28.7	15
CCOC(=O)C1C(c2ccccc2)C2(C#N)C(=N)OC1(C)C2(C#N)C#N (centres undefined)	26.4	97.6	50.8	20.3	99.7	31.5	> 100	37.8	48.8	26.7	51.6	56	42.6	37.4	59.6	> 100	82.6
CCCCCCCCOP(=O)(O)OP(=O)(O)OCC1OC(n2ccc(N)nc2=O)C(O)C1O (centres undefined)	> 100	> 100	> 100	> 100	> 100	> 100	> 100	> 100	> 100	> 100	> 100	> 100	> 100	> 100	> 100	> 100	> 100

Source: PubChem BioAssay (NCI)
